The nature of data set [1]: refractive index (Na D-line) (dimensionless). The note with it: 101.33 kPa, Liquid, Standard Abbe refractometry.
For data set [2] the following is noted: 101.33 kPa, Liquid.

Numbers after ± are expanded uncertainties.

In the case of `Nc1ccccc1` [aniline], the refractive index in data set [1] (293.15 K) turned out to be 1.5962 ± 0.0007. For the same compound, in data set [2] (293.15 K), the mass density was 1021.72 ± 1.6 kg/m3.
Consider `Cc1ccccc1` [toluene], for which the refractive index in data set [1] (293.15 K) is reported as 1.496 ± 0.0007. In data set [2] (293.15 K), the mass density stood at 866.78 ± 0.89 kg/m3.
`CCCCCCCC` [octane]: in data set [1] (298.15 K), the refractive index is given as 1.3946 ± 0.0007. In addition, the mass density in data set [2] (298.15 K) was determined as 698.49 ± 0.71 kg/m3.
Consider `NC1CCCCC1` [cyclohexylamine], for which, in data set [1] (288.15 K), the refractive index was 1.4624 ± 0.0007. For the same compound, the mass density in data set [2] (303.15 K) was found to be 858.2 ± 0.91 kg/m3.

What is called refractive index is a measure of how strongly the sample bends light. Usually mass density stands for the mass of a sample divided by its volume.

Values taken from the NIST ThermoML archive (doi:10.1016/j.fluid.2007.07.023).
